In data set [1] the test system is Hepatitis B virus. As to the kind of experiment: Antiviral activity against HBV assessed as inhibition of viral surface antigen secretion. The format is functional, organism-based.
A short description of data set [2]: Cytotoxicity against human HepG2(2.2.15) cells. The data set is classed as cell-based.
The subject of data set [3] is Hepatitis B virus. Put plainly: Antiviral activity against HBV assessed as inhibition of viral early antigen secretion. The format is functional, organism-based.
Data set [4] is described as follows: Selectivity index, ratio of CC50 for human HepG2(2.2.15) cells to IC50 for HBV early antigen secretion. The format is functional.
Data set [5] can be described thus: Selectivity index, ratio of CC50 for human HepG2(2.2.15) cells to IC50 for HBV surface antigen secretion. The format is functional.

As usually defined, the IC50 is the concentration needed to halve the response being measured. By CC50 is commonly meant the concentration giving 50% cytotoxicity.

For the molecule `C[C@H](C[C@H](OC(=O)c1ccc(Cl)cc1Cl)[C@@H](OC(=O)c1ccc(Cl)cc1Cl)C(C)(C)OC(=O)c1ccc(Cl)cc1Cl)C1=C2C[C@H](OC(=O)c3ccc(Cl)cc3Cl)[C@H]3[C@@]4(C)CCC(=O)C(C)(C)[C@@H]4CC[C@]3(C)[C@@]2(C)CC1`, the IC50 in data set [1] and in data set [3] was > 1000 µM throughout. In data set [2], the CC50 was > 1000 µM.

On to `C[C@H](C[C@H](OC(=O)c1ccccc1)[C@@H](OC(=O)c1ccccc1)C(C)(C)OC(=O)c1ccccc1)C1=C2C[C@H](OC(=O)c3ccccc3)[C@H]3[C@@]4(C)CCC(=O)C(C)(C)[C@@H]4CC[C@]3(C)[C@@]2(C)CC1`, for which the IC50 in data set [1] and in data set [3] was > 1400 µM in each case. Also, the CC50 in data set [2] was > 1400 µM.

In the case of `COCC(=O)OC(C)(C)[C@H](OC(C)=O)[C@H](C[C@@H](C)C1=C2C[C@H](OC(C)=O)[C@H]3[C@@]4(C)CCC(=O)C(C)(C)[C@@H]4CC[C@]3(C)[C@@]2(C)CC1)OC(C)=O`, the IC50 in data set [1] was 4.4 µM; in data set [3] it was 12 µM. For the same molecule, the figures for the “Ratio CC50/IC50” value in data set [4] and in data set [5] were 77 and 209, respectively. Also, in data set [2], half-maximal cytotoxicity (CC50) was put at 920 µM.

`C[C@H](C[C@H](OC(=O)c1ccccc1I)[C@@H](OC(=O)c1ccccc1I)C(C)(C)OC(=O)c1ccccc1I)C1=C2C[C@H](OC(=O)c3ccccc3I)[C@H]3[C@@]4(C)CCC(=O)C(C)(C)[C@@H]4CC[C@]3(C)[C@@]2(C)CC1`: the IC50 in data set [1] and in data set [3] was > 1400 µM in each case. Also, the CC50 in data set [2] is > 1400 µM.

`CCCCCCCC(=O)O[C@@H](C[C@@H](C)C1=C2C[C@H](OC(=O)CCCCCCC)[C@H]3[C@@]4(C)CCC(=O)C(C)(C)[C@@H]4CC[C@]3(C)[C@@]2(C)CC1)[C@@H](OC(=O)CCCCCCC)C(C)(C)OC(=O)CCCCCCC`: the IC50 in data set [1] and in data set [3] was > 1600 µM each time. Besides, the CC50 in data set [2] is > 1600 µM.

As to `CC(C)CC(=O)O[C@@H](C[C@@H](C)C1=C2C[C@H](OC(=O)CC(C)C)[C@H]3[C@@]4(C)CCC(=O)C(C)(C)[C@@H]4CC[C@]3(C)[C@@]2(C)CC1)[C@@H](OC(=O)CC(C)C)C(C)(C)OC(=O)CC(C)C`, the IC50 in data set [1] and in data set [3] was > 2000 µM each time. For the same molecule, the CC50 in data set [2] was > 2000 µM.

As to `C[C@H](C[C@H](OC(=O)CCC1CCCCC1)[C@@H](OC(=O)CCC1CCCCC1)C(C)(C)OC(=O)CCC1CCCCC1)C1=C2C[C@H](OC(=O)CCC3CCCCC3)[C@H]3[C@@]4(C)CCC(=O)C(C)(C)[C@@H]4CC[C@]3(C)[C@@]2(C)CC1`, the IC50 in data set [1] and in data set [3] was > 1700 µM in each case. Further, in data set [2], the CC50 is > 1700 µM.

On to `C[C@H](C[C@H](OC(=O)/C=C/c1ccccc1)[C@@H](OC(=O)/C=C/c1ccccc1)C(C)(C)OC(=O)/C=C/c1ccccc1)C1=C2C[C@H](OC(=O)/C=C/c3ccccc3)[C@H]3[C@@]4(C)CCC(=O)C(C)(C)[C@@H]4CC[C@]3(C)[C@@]2(C)CC1`, for which the IC50 in data set [1] and in data set [3] was > 1200 µM each time. The CC50 in data set [2] is > 1200 µM.

For the molecule `CCC(=O)O[C@@H](C[C@@H](C)[C@]12CC[C@@]3(C)[C@@]1(C[C@H](OC(=O)CC)[C@H]1[C@@]4(C)CCC(=O)C(C)(C)[C@@H]4CC[C@@]13C)O2)[C@@H](OC(=O)CC)C(C)(C)OC(=O)CC`, the results for the IC50 in data set [1] and in data set [3] were > 2200 µM and 1300 µM, respectively. In data set [4], the “Ratio CC50/IC50” value is recorded as >1.7. Moreover, in data set [2], the CC50 is > 2200 µM.

Regarding `CC(=O)OC(C)(C)[C@H](OC(=O)C(C)C)[C@H](C[C@@H](C)C1=C2C[C@H](OC(=O)C(C)C)[C@H]3[C@@]4(C)CCC(=O)C(C)(C)[C@@H]4CC[C@]3(C)[C@@]2(C)CC1)OC(=O)C(C)C`, the results for the IC50 in data set [1] and in data set [3] were > 1900 µM and 1500 µM, respectively. Moreover, in data set [4], the “Ratio CC50/IC50” value is reported as >1.3. In data set [2], the CC50 was > 1900 µM.

`CC(=O)OC(C)(C)[C@H](OC(=O)c1ccccc1)[C@H](C[C@@H](C)C1=C2C[C@H](OC(=O)c3ccccc3)[C@H]3[C@@]4(C)CCC(=O)C(C)(C)[C@@H]4CC[C@]3(C)[C@@]2(C)CC1)OC(=O)c1ccccc1`: the IC50 in data set [1] and in data set [3] was > 1700 µM each time. Besides, in data set [2], the CC50 is > 1700 µM.

With `C[C@H](C[C@H](OC(=O)COc1cc(Cl)c(Cl)cc1Cl)[C@@H](OC(=O)COc1cc(Cl)c(Cl)cc1Cl)C(C)(C)OC(=O)COc1cc(Cl)c(Cl)cc1Cl)C1=C2C[C@H](OC(=O)COc3cc(Cl)c(Cl)cc3Cl)[C@H]3[C@@]4(C)CCC(=O)C(C)(C)[C@@H]4CC[C@]3(C)[C@@]2(C)CC1`, the IC50 in data set [1] and in data set [3] was > 1200 µM each time. Also, the CC50 in data set [2] was > 1200 µM.

For the molecule `Nc1ccn([C@@H]2CS[C@H](CO)O2)c(=O)n1` [LAMIVUDINE], the values for the IC50 in data set [1] and in data set [3] were 13000 µM and 22000 µM, respectively. For the same molecule, the “Ratio CC50/IC50” value is given as 1.6 in data set [4] and 2.7 in data set [5]. The molecule also gave a CC50 in data set [2] of 35000 µM.

On to `C[C@H](C[C@H](OC(=O)COc1ccccc1)[C@@H](OC(=O)COc1ccccc1)C(C)(C)OC(=O)COc1ccccc1)C1=C2C[C@H](OC(=O)COc3ccccc3)[C@H]3[C@@]4(C)CCC(=O)C(C)(C)[C@@H]4CC[C@]3(C)[C@@]2(C)CC1`, for which the IC50 in data set [1] and in data set [3] was > 1400 µM throughout. For the same molecule, the CC50 in data set [2] was > 1400 µM.

On to `CCCCC(=O)O[C@@H](C[C@@H](C)C1=C2C[C@H](OC(=O)CCCC)[C@H]3[C@@]4(C)CCC(=O)C(C)(C)[C@@H]4CC[C@]3(C)[C@@]2(C)CC1)[C@@H](OC(=O)CCCC)C(C)(C)OC(=O)CCCC`, for which the IC50 in data set [1] and in data set [3] was > 1400 µM in each case. Moreover, the CC50 in data set [2] was > 1400 µM.

For `C[C@H](C[C@H](OC(=O)CN1C(=O)c2ccccc2C1=O)[C@@H](OC(=O)CN1C(=O)c2ccccc2C1=O)C(C)(C)OC(=O)CN1C(=O)c2ccccc2C1=O)C1=C2C[C@H](OC(=O)CN3C(=O)c4ccccc4C3=O)[C@H]3[C@@]4(C)CCC(=O)C(C)(C)[C@@H]4CC[C@]3(C)[C@@]2(C)CC1`, the IC50 in data set [1] and in data set [3] was > 1300 µM in each case. The CC50 in data set [2] is > 1300 µM.

For `CCCC(=O)O[C@@H](C[C@@H](C)C1=C2C[C@H](OC(=O)CCC)[C@H]3[C@@]4(C)CCC(=O)C(C)(C)[C@@H]4CC[C@]3(C)[C@@]2(C)CC1)[C@@H](OC(=O)CCC)C(C)(C)OC(=O)CCC`, the IC50 in data set [1] was > 1800 µM; in data set [3] it was 1800 µM. In data set [2], the CC50 was > 1800 µM.

Regarding `CC(=O)OC1=CC[C@@]2(C)[C@@H](CC[C@@]3(C)[C@H]2[C@@H](OC(C)=O)CC2=C([C@H](C)C[C@H](OC(C)=O)[C@@H](OC(C)=O)C(C)(C)OC(C)=O)CC[C@@]23C)C1(C)C`, the figures for the IC50 in data set [1] and in data set [3] were > 2100 µM and 280 µM, respectively. Besides, the “Ratio CC50/IC50” value in data set [4] was >7.5. In data set [2], the CC50 is > 2100 µM.

As for `C[C@H](C[C@H](OC(=O)c1ccccc1)[C@@H](OC(=O)c1ccccc1)C(C)(C)OC(=O)c1ccccc1)[C@]12CC[C@@]3(C)[C@@]1(C[C@H](OC(=O)c1ccccc1)[C@H]1[C@@]4(C)CCC(=O)C(C)(C)[C@@H]4CC[C@@]13C)O2`, the IC50 was > 1700 µM in data set [1] and 1100 µM in data set [3]. Besides, in data set [4], the “Ratio CC50/IC50” value is recorded as >1.5. The CC50 in data set [2] is > 1700 µM.

On to `CCCC(=O)O[C@@H](C[C@@H](C)[C@]12CC[C@@]3(C)[C@@]1(C[C@H](OC(=O)CCC)[C@H]1[C@@]4(C)CCC(=O)C(C)(C)[C@@H]4CC[C@@]13C)O2)[C@@H](OC(=O)CCC)C(C)(C)OC(=O)CCC`, for which the IC50 in data set [1] and in data set [3] was > 1900 µM each time. The CC50 in data set [2] is > 1900 µM.

With `CCC(=O)O[C@@H](C[C@@H](C)C1=C2C[C@H](OC(=O)CC)[C@H]3[C@@]4(C)CCC(=O)C(C)(C)[C@@H]4CC[C@]3(C)[C@@]2(C)CC1)[C@@H](OC(=O)CC)C(C)(C)OC(=O)CC`, the figures for the IC50 in data set [1] and in data set [3] were 900 µM and > 1900 µM, respectively. In addition, in data set [5], the “Ratio CC50/IC50” value is reported as >2.1. Further, the CC50 in data set [2] was > 1900 µM.

For the molecule `C[C@H](C[C@H](OC(=O)[C@H]1CCC(=O)O1)[C@@H](OC(=O)[C@H]1CCC(=O)O1)C(C)(C)OC(=O)[C@@H]1CCC(=O)O1)C1=C2C[C@H](OC(=O)[C@@H]3CCC(=O)O3)[C@H]3[C@@]4(C)CCC(=O)C(C)(C)[C@@H]4CC[C@]3(C)[C@@]2(C)CC1`, the IC50 in data set [1] and in data set [3] was > 1600 µM each time. The CC50 in data set [2] was > 1600 µM.

In the case of `C[C@H](C[C@H](OC(=O)c1cccc([N+](=O)[O-])c1)[C@@H](OC(=O)c1cccc([N+](=O)[O-])c1)C(C)(C)OC(=O)c1cccc([N+](=O)[O-])c1)C1=C2C[C@H](OC(=O)c3cccc([N+](=O)[O-])c3)[C@H]3[C@@]4(C)CCC(=O)C(C)(C)[C@@H]4CC[C@]3(C)[C@@]2(C)CC1`, the IC50 in data set [1] and in data set [3] was > 1100 µM each time. In data set [2], the CC50 is > 1100 µM.

`C[C@H](C[C@H](OC(=O)c1ccc(Cl)cc1)[C@@H](OC(=O)c1ccc(Cl)cc1)C(C)(C)OC(=O)c1ccc(Cl)cc1)C1=C2C[C@H](OC(=O)c3ccc(Cl)cc3)[C@H]3[C@@]4(C)CCC(=O)C(C)(C)[C@@H]4CC[C@]3(C)[C@@]2(C)CC1`: the IC50 is 480 µM in data set [1] and > 1400 µM in data set [3]. Besides, the “Ratio CC50/IC50” value in data set [5] is >2.9. The CC50 in data set [2] was > 1400 µM.

For the molecule `C[C@H](C[C@H](OC(=O)/C=C/c1ccccc1Cl)[C@@H](OC(=O)/C=C/c1ccccc1Cl)C(C)(C)OC(=O)/C=C/c1ccccc1Cl)C1=C2C[C@H](OC(=O)/C=C/c3ccccc3Cl)[C@H]3[C@@]4(C)CCC(=O)C(C)(C)[C@@H]4CC[C@]3(C)[C@@]2(C)CC1`, the half-maximal inhibitory concentration (IC50) in data set [1] and in data set [3] was > 1400 µM in each case. In addition, in data set [2], the CC50 is > 1400 µM.

As for `C[C@H](C[C@H](OC(=O)C1CC1)[C@@H](OC(=O)C1CC1)C(C)(C)OC(=O)C1CC1)C1=C2C[C@H](OC(=O)C3CC3)[C@H]3[C@@]4(C)CCC(=O)C(C)(C)[C@@H]4CC[C@]3(C)[C@@]2(C)CC1`, the IC50 in data set [1] and in data set [3] was > 2100 µM throughout. In addition, the CC50 in data set [2] was > 2100 µM.

These data come from ChEMBL document CHEMBL1154649, “Anti-HBV agents. Part 3: preliminary structure-activity relationships of tetra-acylalisol A derivatives as potent hepatitis B virus inhibitors” (Bioorg Med Chem Lett, 2009).
